Ratio IC50 and IC50 data for two molecules are collected here from ChEMBL document CHEMBL2203062 (Bioorg Med Chem Lett, 2012).

The nature of test [1]: Selectivity ratio of IC50 for HDAC3 to IC50 for IC50 for HDAC6.
Test [2] concerns the target T1, Protein deacetylase HDAC6 (Homo sapiens, UniProt Q9UBN7).
T1 sequence (Q9UBN7 whole entry): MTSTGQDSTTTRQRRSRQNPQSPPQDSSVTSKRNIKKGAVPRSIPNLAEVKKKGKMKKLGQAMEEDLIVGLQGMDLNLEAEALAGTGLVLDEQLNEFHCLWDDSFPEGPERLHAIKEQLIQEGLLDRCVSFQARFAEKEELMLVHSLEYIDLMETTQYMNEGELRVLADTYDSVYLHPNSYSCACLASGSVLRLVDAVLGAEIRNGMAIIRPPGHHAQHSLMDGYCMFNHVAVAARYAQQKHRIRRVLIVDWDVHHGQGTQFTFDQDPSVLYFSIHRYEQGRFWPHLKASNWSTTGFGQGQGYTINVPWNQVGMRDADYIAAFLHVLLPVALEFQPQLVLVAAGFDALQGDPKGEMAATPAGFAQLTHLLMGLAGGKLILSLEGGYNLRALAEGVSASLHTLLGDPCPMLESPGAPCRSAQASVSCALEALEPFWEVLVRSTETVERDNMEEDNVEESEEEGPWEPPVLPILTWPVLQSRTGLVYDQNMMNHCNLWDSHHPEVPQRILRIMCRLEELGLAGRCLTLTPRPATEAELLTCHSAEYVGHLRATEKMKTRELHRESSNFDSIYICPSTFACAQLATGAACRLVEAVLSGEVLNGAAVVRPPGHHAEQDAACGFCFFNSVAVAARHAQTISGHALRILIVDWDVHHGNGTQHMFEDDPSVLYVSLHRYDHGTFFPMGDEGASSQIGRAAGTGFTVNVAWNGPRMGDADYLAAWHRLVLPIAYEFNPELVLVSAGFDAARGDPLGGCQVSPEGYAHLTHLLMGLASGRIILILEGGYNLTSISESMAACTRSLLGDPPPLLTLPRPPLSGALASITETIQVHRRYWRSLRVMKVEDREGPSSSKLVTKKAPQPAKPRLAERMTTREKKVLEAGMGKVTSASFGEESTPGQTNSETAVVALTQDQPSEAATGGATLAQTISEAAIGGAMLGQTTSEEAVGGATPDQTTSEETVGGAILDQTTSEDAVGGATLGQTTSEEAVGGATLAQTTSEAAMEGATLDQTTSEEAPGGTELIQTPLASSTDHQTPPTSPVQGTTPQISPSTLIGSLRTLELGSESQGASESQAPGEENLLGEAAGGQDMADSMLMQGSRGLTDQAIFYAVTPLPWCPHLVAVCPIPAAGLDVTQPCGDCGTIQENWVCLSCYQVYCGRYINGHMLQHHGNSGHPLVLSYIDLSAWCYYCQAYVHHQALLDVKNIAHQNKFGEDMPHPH
The test is described as follows: Inhibition of HDAC6 using Fluor-de-Lys as substrate compound pretreated for 30 mins before substrate addition by fluorescence assay.

In the next test the target is Histone deacetylase 3 (Homo sapiens, UniProt O15379). Put plainly: Inhibition of HDAC3 using Fluor-de-Lys as substrate compound pretreated for 30 mins before substrate addition by fluorescence assay.
For another test, the target named is Histone deacetylase. The test is described as follows: Inhibition of HDAC in human Hela cell lysate using Fluor-de-Lys as substrate compound pretreated for 30 mins before substrate addition by fluorescence assay. The test is classed as cell-based.
The target of a further test is Histone deacetylase 1 (Homo sapiens, UniProt Q13547). Put plainly: Inhibition of HDAC1 using Fluor-de-Lys as substrate compound pretreated for 30 mins before substrate addition by fluorescence assay.

One may read the pIC50 as the IC50 on a negative log10 scale, so that one unit is a factor of ten. What is called IC50 is the concentration that inhibits the measured activity by half.

SMILES strings stand for the structures. pIC50: −log10 of the molar value.

Histone deacetylase 3, sequence (O15379 whole entry): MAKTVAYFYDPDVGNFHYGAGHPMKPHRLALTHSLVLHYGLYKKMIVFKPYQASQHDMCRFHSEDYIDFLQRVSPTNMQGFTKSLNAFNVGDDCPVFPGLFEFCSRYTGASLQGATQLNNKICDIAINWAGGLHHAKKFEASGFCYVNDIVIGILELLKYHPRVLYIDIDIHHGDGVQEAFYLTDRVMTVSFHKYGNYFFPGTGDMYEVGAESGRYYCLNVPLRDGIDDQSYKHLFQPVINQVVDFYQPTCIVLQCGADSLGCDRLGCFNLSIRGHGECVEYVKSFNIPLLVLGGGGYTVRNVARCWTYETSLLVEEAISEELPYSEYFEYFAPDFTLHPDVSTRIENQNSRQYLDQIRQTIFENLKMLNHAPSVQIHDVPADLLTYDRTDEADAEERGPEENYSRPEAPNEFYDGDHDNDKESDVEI
Histone deacetylase 1, sequence (Q13547 whole entry): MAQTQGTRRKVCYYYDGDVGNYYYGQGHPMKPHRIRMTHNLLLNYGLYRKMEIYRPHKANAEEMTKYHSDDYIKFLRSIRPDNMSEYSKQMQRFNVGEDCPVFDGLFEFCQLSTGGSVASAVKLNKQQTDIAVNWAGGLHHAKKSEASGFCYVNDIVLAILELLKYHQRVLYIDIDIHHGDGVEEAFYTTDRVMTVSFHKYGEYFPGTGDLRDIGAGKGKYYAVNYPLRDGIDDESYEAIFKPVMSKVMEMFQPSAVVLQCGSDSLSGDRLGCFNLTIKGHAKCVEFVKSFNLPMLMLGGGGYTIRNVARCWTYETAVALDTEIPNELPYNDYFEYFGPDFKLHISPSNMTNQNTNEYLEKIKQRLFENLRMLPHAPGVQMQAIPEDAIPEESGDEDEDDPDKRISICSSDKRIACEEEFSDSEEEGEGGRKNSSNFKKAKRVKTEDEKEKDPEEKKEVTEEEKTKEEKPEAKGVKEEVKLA

For `CCC(CCCCC(=O)Nc1ccccc1)CC(=O)NO` (stereo unspecified), in test [1], the Ratio IC50 was 12.

For `CC(C)(C)C(CCCCC(=O)NO)CC(=O)Nc1ccccc1` (stereo unspecified), the results for the negative-log IC50 (pIC50) (in test [2]; on Histone deacetylase 3; at Histone deacetylase 1) were 5.62, 5.27 and 6.00, respectively. Besides, in test [1], the Ratio IC50 was 2. Besides, the half-maximal inhibitory concentration (IC50) on Histone deacetylase came out at 1940 nM.
